# According to ChEMBL document CHEMBL1201862, “PubChem BioAssay data set” (2004):
#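 Compound exposure: 48 hours, 5 concentrations, 96-well plates. The concentration for 50% growth inhibition is given as GI50.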 Calls of active or inactive are those of the source. No stated cut-off is given here; in the data, active = GI50 up to about 1.1 µM and inactive = higher.
# Assays:
# Assay in all cases: NCI anticancer screen, dose series, 48 h
# TK-10 = test system: TK-10
# OVCAR-3 = test system: OVCAR-3
# NCI-H522 = test system: NCI-H522
# CAKI-1 = test system: CAKI-1
# UO-31 = test system: UO-31
# ACHN = test system: ACHN
# SNB-75 = test system: SNB-75
# EKVX = test system: EKVX
# SK-MEL-5 = test system: SK-MEL-5
# 786-0 = test system: 786-0
# NCI-H23 = test system: NCI-H23
# NCI-H226 = test system: NCI-H226
# HL-60 = test system: HL-60
# Malme-3M = test system: Malme-3M
# UACC-62 = test system: UACC-62
# COLO 205 = test system: COLO 205
# K562 = test system: K562
# DLD-1 = test system: DLD-1
# LXFL 529 = test system: LXFL 529
Structure (SMILES),GI50 (TK-10),GI50 (OVCAR-3),GI50 (NCI-H522),GI50 (CAKI-1),GI50 (UO-31),GI50 (ACHN),GI50 (SNB-75),GI50 (EKVX),GI50 (SK-MEL-5),GI50 (786-0),GI50 (NCI-H23),GI50 (NCI-H226),GI50 (HL-60),GI50 (Malme-3M),GI50 (UACC-62),GI50 (COLO 205),GI50 (K562),GI50 (DLD-1),GI50 (LXFL 529)
CC(C)NC(=O)OCCN=C1c2ccccc2C(Br)C(Br)c2ccccc21 (configuration not stated),5.87 µM (inactive),12.1 µM (inactive),1.68 µM (inactive),7.01 µM (inactive),4.21 µM (inactive),7.6 µM (inactive),8.04 µM (inactive),9.06 µM (inactive),7.19 µM (inactive),4.14 µM (inactive),15.6 µM (inactive),15.6 µM (inactive),1.05 µM (active),5.4 µM (inactive),10.1 µM (inactive),5.13 µM (inactive),1.06 µM (active),,
CN1CN(c2ccccc2)C2(CCN(CCc3csc4ccccc34)CC2)C1=O,14 µM (inactive),12.1 µM (inactive),15.9 µM (inactive),11.2 µM (inactive),1.8 µM (inactive),> 10 µM (inactive),17.3 µM (inactive),12.8 µM (inactive),17.5 µM (inactive),14.5 µM (inactive),17.4 µM (inactive),17.4 µM (inactive),9.38 µM (inactive),15 µM (inactive),19.9 µM (inactive),14.3 µM (inactive),14.8 µM (inactive),,
O=C(O)C(Cc1ccccc1)N1C(=O)N/C(=C\c2ccc(F)cc2)C1=O (configuration not stated),> 100 µM (inactive),,> 100 µM (inactive),> 100 µM (inactive),> 100 µM (inactive),> 100 µM (inactive),> 100 µM (inactive),> 100 µM (inactive),> 100 µM (inactive),> 100 µM (inactive),> 100 µM (inactive),> 100 µM (inactive),> 100 µM (inactive),,36.7 µM (inactive),> 100 µM (inactive),> 100 µM (inactive),> 100 µM (inactive),> 100 µM (inactive)
O=c1c2ccccc2c2c1c1c3ccccc3c(=O)c1c1c3ccccc3c(=O)c21,> 100 µM (inactive),> 100 µM (inactive),> 100 µM (inactive),> 100 µM (inactive),> 100 µM (inactive),> 100 µM (inactive),> 100 µM (inactive),> 100 µM (inactive),> 100 µM (inactive),> 100 µM (inactive),> 100 µM (inactive),> 100 µM (inactive),> 100 µM (inactive),> 100 µM (inactive),> 100 µM (inactive),> 100 µM (inactive),> 100 µM (inactive),,
CCC1([N+](=O)[O-])CC2C=CC1C2 (configuration not stated),> 100 µM (inactive),> 100 µM (inactive),> 100 µM (inactive),> 100 µM (inactive),> 100 µM (inactive),> 100 µM (inactive),> 100 µM (inactive),> 100 µM (inactive),> 100 µM (inactive),> 100 µM (inactive),> 100 µM (inactive),> 100 µM (inactive),49.9 µM (inactive),> 100 µM (inactive),> 100 µM (inactive),> 100 µM (inactive),> 100 µM (inactive),,
COc1ccc(CCNC2=CC(=O)c3ncccc3C2=O)cc1OC,24.3 µM (inactive),0.514 µM (active),2.11 µM (inactive),1.71 µM (inactive),0.931 µM (active),3.67 µM (inactive),0.748 µM (active),5.5 µM (inactive),0.184 µM (active),3.31 µM (inactive),0.346 µM (active),1.42 µM (inactive),2.82 µM (inactive),0.682 µM (active),0.435 µM (active),1.79 µM (inactive),2.24 µM (inactive),,
CCOC(=O)C1=C(C(=O)c2ccc(C)cc2)C(c2cccc([N+](=O)[O-])c2)C(C(=O)c2ccc(C)cc2)=C(C(=O)OCC)N1,17.2 µM (inactive),15.5 µM (inactive),15.6 µM (inactive),19.5 µM (inactive),11.4 µM (inactive),15.1 µM (inactive),40.9 µM (inactive),24.1 µM (inactive),17.8 µM (inactive),16.2 µM (inactive),15.8 µM (inactive),19.1 µM (inactive),29.8 µM (inactive),15.1 µM (inactive),18.2 µM (inactive),1.95 µM (inactive),7.24 µM (inactive),,
COc1ccc2c(c1)/C(=C(\C(Cl)=C(Cl)Cl)[N+](=O)[O-])N2,> 100 µM (inactive),28.2 µM (inactive),25.3 µM (inactive),90.6 µM (inactive),> 100 µM (inactive),> 100 µM (inactive),35.7 µM (inactive),26.7 µM (inactive),41 µM (inactive),69.8 µM (inactive),87.7 µM (inactive),22.3 µM (inactive),> 100 µM (inactive),88.9 µM (inactive),> 100 µM (inactive),> 100 µM (inactive),39 µM (inactive),,
COc1nc2c(c(=O)n1C)N(C(C)=O)C1C(N2)OCC(OC(C)=O)C1OC(C)=O (configuration not stated),> 10 µM (inactive),> 10 µM (inactive),> 10 µM (inactive),> 10 µM (inactive),> 10 µM (inactive),> 10 µM (inactive),> 10 µM (inactive),> 10 µM (inactive),> 10 µM (inactive),> 10 µM (inactive),> 10 µM (inactive),> 10 µM (inactive),> 10 µM (inactive),> 10 µM (inactive),> 10 µM (inactive),> 10 µM (inactive),> 10 µM (inactive),,
CCOC(=O)c1cccc(/N=N/c2ncc(/C=C/C(=O)OC)[nH]2)c1,26.5 µM (inactive),23.3 µM (inactive),15.7 µM (inactive),14.5 µM (inactive),18 µM (inactive),22 µM (inactive),26.4 µM (inactive),27.7 µM (inactive),10.8 µM (inactive),14.6 µM (inactive),28.2 µM (inactive),36.1 µM (inactive),5.97 µM (inactive),22.6 µM (inactive),21.5 µM (inactive),18.8 µM (inactive),20.9 µM (inactive),,
CC(=O)OC1COC(n2nc(N)nc2C)C(OC(C)=O)C1OC(C)=O (configuration not stated),> 100 µM (inactive),> 100 µM (inactive),> 100 µM (inactive),> 100 µM (inactive),> 100 µM (inactive),> 100 µM (inactive),> 100 µM (inactive),> 100 µM (inactive),> 100 µM (inactive),> 100 µM (inactive),> 100 µM (inactive),> 100 µM (inactive),> 100 µM (inactive),> 100 µM (inactive),> 100 µM (inactive),> 100 µM (inactive),> 100 µM (inactive),,
C/C(=N/c1[nH]c(=O)cc2c1C(=O)CC2)N(C)C,> 200 µM (inactive),> 200 µM (inactive),> 200 µM (inactive),> 200 µM (inactive),> 200 µM (inactive),> 200 µM (inactive),> 200 µM (inactive),> 200 µM (inactive),> 200 µM (inactive),> 200 µM (inactive),> 200 µM (inactive),> 200 µM (inactive),> 200 µM (inactive),> 200 µM (inactive),> 200 µM (inactive),> 200 µM (inactive),> 200 µM (inactive),,
NC1=CN(Cc2ccccc2)C2=N/C(=C\c3ccccc3)C(=O)N12,> 100 µM (inactive),> 100 µM (inactive),51.3 µM (inactive),> 100 µM (inactive),65.9 µM (inactive),> 100 µM (inactive),> 100 µM (inactive),> 100 µM (inactive),66.5 µM (inactive),> 100 µM (inactive),> 100 µM (inactive),> 100 µM (inactive),26.1 µM (inactive),> 100 µM (inactive),> 100 µM (inactive),> 100 µM (inactive),48.8 µM (inactive),,
C[C@@H]1C[C@@H]2OC(=O)[C@]3(C)[C@H]2[C@@H](OC3(C)O)[C@]2(C)C(=O)C=C[C@@H]12 (some centres not stated) [TENULIN],18 µM (inactive),20.6 µM (inactive),6.67 µM (inactive),22.1 µM (inactive),40.8 µM (inactive),19.5 µM (inactive),> 100 µM (inactive),20.2 µM (inactive),20.2 µM (inactive),31.1 µM (inactive),25.9 µM (inactive),74 µM (inactive),3.48 µM (inactive),13.6 µM (inactive),16.8 µM (inactive),14.2 µM (inactive),0.0543 µM (active),,
C=CCC1(Sc2ccccn2)Sc2ccc3ccccc3c2-c2c(ccc3ccccc23)S1,> 100 µM (inactive),> 100 µM (inactive),> 100 µM (inactive),> 100 µM (inactive),> 100 µM (inactive),> 100 µM (inactive),55.7 µM (inactive),> 100 µM (inactive),> 100 µM (inactive),> 100 µM (inactive),> 100 µM (inactive),> 100 µM (inactive),> 100 µM (inactive),> 100 µM (inactive),> 100 µM (inactive),> 100 µM (inactive),> 100 µM (inactive),,
CCOC(=O)CCC(NC(=O)c1ccc(Nc2nc3ccccc3nc2C(=O)OCC)cc1)C(=O)OCC (configuration not stated),2.92 µM (inactive),2.04 µM (inactive),3.3 µM (inactive),5.96 µM (inactive),4.28 µM (inactive),3.58 µM (inactive),2.36 µM (inactive),7.38 µM (inactive),27.8 µM (inactive),1.85 µM (inactive),7.52 µM (inactive),3.24 µM (inactive),> 100 µM (inactive),6.67 µM (inactive),3.2 µM (inactive),> 33.7 µM (inactive),> 100 µM (inactive),,
